Assay results: PMC5773580, “A synthetic combinatorial approach to disabling deviant Hedgehog signaling” (Scientific Reports, 2018)
Several values for one entry are separate records, joined by “and”; a condition that tells them apart may be missing. Identical values can stand only once.

Columns and labels:
[1] = target: T1, HDAC3/NCOR2 (Homo sapiens, UniProt O15379); assay: In vitro HDAC profiling (deacetylation assay), HDAC3; type: biochemical; details: for HDAC Activity (Fluorescent counts): Repeat1/Repeat 2
T1 construct: purchased BPS Bioscience #50051-11
Experimental: (§1) HDAC profiling was performed at BPS Bioscience (San Diego, CA). All of the compounds are dissolved in DMSO. A series of dilutions of the compounds were prepared with 10% DMSO in HDAC assay buffer (#50031) and 5 µl of the dilution was added to a 50 µl reaction so that the final concentration of DMSO is 1% in all of reactions. All of the enzymatic reactions were conducted in duplicate at 37 °C for 30 mins, except that the enzyme reactions for HDAC11 were at room temperature for 3 hrs. All of the reactions were performed in a 50 µl mixture containing HDAC assay buffer, 5 µg BSA, an HDAC substrate [HDAC Substrate 3 (BPS number 50037) or HDAC Class 2a Substrate 1 (BPS number 50040)], an HDAC enzyme (#50051-11) and a test compound. After enzymatic reactions, 50 μl of HDAC Developer (#50030) was added to each well and the plate was incubated at room temperature for an additional 20 mins. Fluorescence intensity was measured at an excitation of 360 nm and an emission of 460 nm using a Tecan Infinite M1000 microplate reader. HDAC activity assays were performed in duplicates at each concentration. The fluorescent intensity data were analyzed using the computer software, Graphpad Prism. In the absence of the compound, the fluorescent intensity (Ft) in each data set was defined as 100% activity. In the absence of HDAC, the fluorescent intensity (Fb) in each data set was defined as 0% activity. The percent activity in the presence of each compound was calculated according to the following equation: %activity = (F − Fb)/(Ft − Fb), where F = the fluorescent intensity in the presence of the compound. The values of % activity versus a series of compound concentrations were then plotted using non-linear regression analysis of Sigmoidal dose-response curve generated with the equation Y = B + (T − B)/1 + 10((LogIC50 − X) × Hill Slope), where Y = percent activity, B = minimum percent activity, T = maximum percent activity, X = logarithm of compound and Hill Slope = slope factor or Hill coefficient. The IC50 value was determined by the concentration causing a half-maximal percent activity.

[2] = target: T2, HDAC10 (Homo sapiens, UniProt Q969S8); assay: In vitro HDAC profiling (deacetylation assay), HDAC10; type: biochemical; details: for HDAC Activity (Fluorescent counts): Repeat1/Repeat 2
T2 construct: purchased BPS Bioscience #50051-11
T2 sequence (Q969S8 1-669): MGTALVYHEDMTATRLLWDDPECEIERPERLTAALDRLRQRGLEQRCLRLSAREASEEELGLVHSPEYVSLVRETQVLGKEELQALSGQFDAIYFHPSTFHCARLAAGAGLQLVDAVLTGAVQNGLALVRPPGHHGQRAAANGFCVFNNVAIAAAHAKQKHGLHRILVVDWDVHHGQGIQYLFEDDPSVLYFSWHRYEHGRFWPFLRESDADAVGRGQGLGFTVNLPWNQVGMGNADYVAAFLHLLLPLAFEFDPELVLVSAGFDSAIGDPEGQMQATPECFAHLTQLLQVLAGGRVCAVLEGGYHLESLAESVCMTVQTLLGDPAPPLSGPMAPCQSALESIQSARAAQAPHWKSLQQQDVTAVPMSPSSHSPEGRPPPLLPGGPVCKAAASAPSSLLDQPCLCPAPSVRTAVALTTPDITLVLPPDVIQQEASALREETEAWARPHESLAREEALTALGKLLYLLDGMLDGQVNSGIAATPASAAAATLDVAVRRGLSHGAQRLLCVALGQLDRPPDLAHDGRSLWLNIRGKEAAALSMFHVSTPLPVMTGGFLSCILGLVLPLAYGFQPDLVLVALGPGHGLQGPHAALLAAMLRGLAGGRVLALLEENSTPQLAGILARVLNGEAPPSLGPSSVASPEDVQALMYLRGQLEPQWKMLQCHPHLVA
Experimental: as §1

[3] = tested on: GLI-BS reporter in Ptch1-/- MEFs; assay: GLI-BS reporter assay in Ptch1-/- MEFs; type: cell-based
Experimental: (§2) The HH-responsive firefly luciferase reporter (GLI-BS) and a control Renilla luciferase reporter (SV40-RL) were transfected into indicated cell lines using Effectene (Qiagen) either alone or with indicated DNAs. 24 hrs after transfection, cells were switched to low serum media (3% calf serum), and grown for another 48 hrs. in 5% CO2 in the presence/absence of compounds. 3T3-ShhFL cell line that stably expressing SHH and the two reporters were cultured in a similar fashion. FL and RL activities in lysate generated using Passive Lysis Buffer (Promega) were then assessed using the Dual-Luciferase kit (Promega) and a 96-well plate reading luminometer (BMG). The ratio of FL/RL was calculated and the averaged ratios from three replicates were reported.

[4] = tested on: SMO-L412F in NIH3T3 (GLI-BS reporter); assay: GLI-BS reporter assay, NIH3T3 cells with SMO-L412F DNA; type: cell-based; details: Mus musculus
Experimental: as §2

[5] = tested on: RMS13 cells (GLI1 amp), GLI-BS reporter; assay: GLI-BS reporter assay in RMS13 cells (GLI1 amplification); type: cell-based
Experimental: as §2

[6] = in vitro deacetylation assay, duplicates

T1 sequence (O15379 whole entry): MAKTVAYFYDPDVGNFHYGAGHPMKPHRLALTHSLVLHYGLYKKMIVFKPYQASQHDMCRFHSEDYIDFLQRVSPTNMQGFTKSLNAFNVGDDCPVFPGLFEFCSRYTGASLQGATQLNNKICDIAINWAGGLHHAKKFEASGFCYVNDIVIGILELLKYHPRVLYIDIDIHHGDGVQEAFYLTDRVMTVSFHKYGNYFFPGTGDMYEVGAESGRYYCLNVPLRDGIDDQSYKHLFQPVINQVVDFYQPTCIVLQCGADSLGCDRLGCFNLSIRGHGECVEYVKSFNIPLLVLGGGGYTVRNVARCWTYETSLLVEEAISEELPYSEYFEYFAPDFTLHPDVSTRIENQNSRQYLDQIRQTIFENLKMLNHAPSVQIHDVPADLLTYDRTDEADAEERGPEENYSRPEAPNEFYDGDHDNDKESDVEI
T1 sequence (Q9Y618 395-489 partner limits assumed): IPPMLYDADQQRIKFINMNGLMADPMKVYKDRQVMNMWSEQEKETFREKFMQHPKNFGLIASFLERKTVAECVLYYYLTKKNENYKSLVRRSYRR

Question: What does the source list for `O=C(CCCCCCC(=O)Nc1ccc(Cl)c(C(=O)Nc2ccc(NC(=O)c3cc(Cl)ccc3Cl)cc2)c1)NO` [IHR-SAHA]?
Answer: HDAC Activity (Fluorescent counts) ([1]; HDAC3/NCOR2, WW01 0 Log nM): 24959 Fluorescent counts and 25571 Fluorescent counts; HDAC Activity (Fluorescent counts) ([1]; HDAC3/NCOR2, WW01 0.5 Log nM): 24611 Fluorescent counts and 25823 Fluorescent counts; HDAC Activity (Fluorescent counts) ([1]; HDAC3/NCOR2, WW01 1 Log nM): 23771 Fluorescent counts and 23666 Fluorescent counts; HDAC Activity (Fluorescent counts) ([1]; HDAC3/NCOR2, WW01 1.5 Log nM): 20712 Fluorescent counts and 23164 Fluorescent counts; HDAC Activity (Fluorescent counts) ([1]; HDAC3/NCOR2, WW01 2 Log nM): 15438 Fluorescent counts and 15968 Fluorescent counts; HDAC Activity (Fluorescent counts) ([1]; HDAC3/NCOR2, WW01 2.5 Log nM): 10185 Fluorescent counts and 10772 Fluorescent counts; HDAC Activity (Fluorescent counts) ([1]; HDAC3/NCOR2, WW01 3 Log nM): 6354 Fluorescent counts and 6385 Fluorescent counts; HDAC Activity (Fluorescent counts) ([1]; HDAC3/NCOR2, WW01 3.5 Log nM): 4726 Fluorescent counts and 4835 Fluorescent counts; HDAC Activity (Fluorescent counts) ([1]; HDAC3/NCOR2, WW01 4 Log nM): 3849 Fluorescent counts and 3671 Fluorescent counts; HDAC Activity (Fluorescent counts) ([1]; HDAC3/NCOR2, WW01 -0.5 Log nM): 25301 Fluorescent counts and 26608 Fluorescent counts; IC50 [1, 6]: 0.188 µM; HDAC Activity (Fluorescent counts) ([2]; HDAC10, WW01 0 Log nM): 21183 Fluorescent counts and 21616 Fluorescent counts; HDAC Activity (Fluorescent counts) ([2]; HDAC10, WW01 0.5 Log nM): 20859 Fluorescent counts and 21260 Fluorescent counts; HDAC Activity (Fluorescent counts) ([2]; HDAC10, WW01 1 Log nM): 19414 Fluorescent counts and 20650 Fluorescent counts; HDAC Activity (Fluorescent counts) ([2]; HDAC10, WW01 1.5 Log nM): 17046 Fluorescent counts and 19100 Fluorescent counts; HDAC Activity (Fluorescent counts) ([2]; HDAC10, WW01 2 Log nM): 13500 Fluorescent counts and 13556 Fluorescent counts; HDAC Activity (Fluorescent counts) ([2]; HDAC10, WW01 2.5 Log nM): 9393 Fluorescent counts and 9233 Fluorescent counts; HDAC Activity (Fluorescent counts) ([2]; HDAC10, WW01 3 Log nM): 6324 Fluorescent counts and 6307 Fluorescent counts; HDAC Activity (Fluorescent counts) ([2]; HDAC10, WW01 3.5 Log nM): 4593 Fluorescent counts and 4402 Fluorescent counts; HDAC Activity (Fluorescent counts) ([2]; HDAC10, WW01 4 Log nM): 3949 Fluorescent counts and 4170 Fluorescent counts; HDAC Activity (Fluorescent counts) ([2]; HDAC10, WW01 -0.5 Log nM): 22257 Fluorescent counts and 21526 Fluorescent counts; IC50 [2, 6]: 0.174 µM; IC50 [3]: 0.015 µM; IC50 [4]: 0.14 µM; IC50 [5]: 1.3 µM
